Measured values taken from patent US12077503B2, “Substituted cyclic amides and their use as herbicides” (FMC CORPORATION, priority 2015, dated 2024).

Assays:
Format in all cases: in vivo
Kochia (Kochia scoparia) [1] = assay: Test A preemergence; settings: Bassia scoparia, pre-emergence, 240 h, Preemergence
Summary of the method: (§1)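 Ratings of 0 (no effect) to 100 (complete control) come from visual comparison with untreated controls roughly 10 d after treatment. Test chemicals, formulated in a non-phytotoxic solvent mixture with surfactant, were applied either as a preemergence directed soil spray on seeded soil or postemergence to one- to two-leaf plants 2 to 10 cm tall.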

[2] = system: barnyardgrass (Echinochloa crus-galli); assay: Test A preemergence; settings: Echinochloa crus-galli, pre-emergence, 240 h, Preemergence
Summary of the method: as §1

[3] = system: giant foxtail (Setaria faberii); assay: Test A preemergence; settings: Setaria faberi, pre-emergence, 240 h, Preemergence
Summary of the method: as §1

[4] = system: pigweed (Amaranthus retroflexus); assay: Test A preemergence; settings: Amaranthus retroflexus, pre-emergence, 240 h, Preemergence
[5] = system: ragweed (common ragweed, Ambrosia elatior); assay: Test A preemergence; settings: Ambrosia artemisiifolia, pre-emergence, 240 h, Preemergence
Summary of the method: as §1

[6] = system: ryegrass, Italian (Italian ryegrass, Lolium multiflorum); assay: Test A preemergence; settings: Lolium multiflorum, pre-emergence, 240 h, Preemergence
Summary of the method: as §1

[7] = system: Galium (catchweed bedstraw, Galium aparine); assay: Test A postemergence; settings: Galium, post-emergence, 240 h, Postemergence, read-out: Plant response rating, Galium
Summary of the method: as §1

Kochia (Kochia scoparia) [8] = assay: Test A postemergence; settings: Bassia scoparia, post-emergence, 240 h, Postemergence, read-out: Plant response rating, Kochia
Summary of the method: as §1

[9] = system: barnyardgrass (Echinochloa crus-galli); assay: Test A postemergence; settings: Echinochloa crus-galli, post-emergence, 240 h, Postemergence, read-out: Plant response rating, Barnyardgrass
Summary of the method: as §1

[10] = system: blackgrass (Alopecurus myosuroides); assay: Test A postemergence; settings: Alopecurus myosuroides, post-emergence, 240 h, Postemergence, read-out: Plant response rating, Blackgrass
Summary of the method: as §1

corn (Zea mays) = assay: Test A postemergence; settings: Zea mays, post-emergence, 240 h, Postemergence
Summary of the method: as §1

[11] = system: giant foxtail (Setaria faberii); assay: Test A postemergence; settings: Setaria faberi, post-emergence, 240 h, Postemergence, read-out: Plant response rating, Foxtail, Giant
Summary of the method: as §1

[12] = system: pigweed (Amaranthus retroflexus); assay: Test A postemergence; settings: Amaranthus retroflexus, post-emergence, 240 h, Postemergence, read-out: Plant response rating, Pigweed
Summary of the method: as §1

[13] = system: ragweed (common ragweed, Ambrosia elatior); assay: Test A postemergence; settings: Ambrosia artemisiifolia, post-emergence, 240 h, Postemergence, read-out: Plant response rating, Ragweed
Summary of the method: as §1

[14] = system: ryegrass, Italian (Italian ryegrass, Lolium multiflorum); assay: Test A postemergence; settings: Lolium multiflorum, post-emergence, 240 h, Postemergence, read-out: Plant response rating, Ryegrass, Italian
Summary of the method: as §1

[15] = system: wheat (Triticum aestivum); assay: Test A postemergence; settings: Triticum aestivum, post-emergence, 240 h, Postemergence, read-out: Plant response rating, Wheat
Summary of the method: as §1

[16] = system: barnyardgrass (Echinochloa crus-galli); assay: Test B flooded paddy test; settings: Echinochloa crus-galli, 250 g ai/ha, Flood; 0 to 100 scale where 0 is no effect and 100 is complete control; read-out: Barnyardgrass plant response rating
Summary of the method: (§2)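 Visual ratings (0 none to 100 complete control) are relative to untreated plants, taken 13–15 d after treatment in a greenhouse. Test material went straight into floodwater standing 3 cm above the soil, kept constant, on plants at the 2-leaf stage.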

[17] = system: ducksalad (Heteranthera limosa); assay: Test B flooded paddy test; settings: Heteranthera limosa, 250 g ai/ha, Flood; 0 to 100 scale where 0 is no effect and 100 is complete control; read-out: Ducksalad plant response rating
Summary of the method: as §2

rice (Oryra sativa) = assay: Test B flooded paddy test; settings: Oryza sativa, 250 g ai/ha, Flood; 0 to 100 scale where 0 is no effect and 100 is complete control; read-out: Rice plant response rating
Summary of the method: as §2

[18] = system: sedge, umbrella (small-flower umbrella sedge, Cyperus difformis); assay: Test B flooded paddy test; settings: Cyperus difformis, 250 g ai/ha, Flood; 0 to 100 scale where 0 is no effect and 100 is complete control; read-out: Sedge, Umbrella plant response rating
Summary of the method: as §2

[19] = 125 g ai/ha, visual injury after approximately 10 d, 0 to 100 scale where 0 is no effect and 100 is complete control
[20] = 31 g ai/ha, visual injury after approx. 10 d, 0 to 100 scale, 0 no effect, 100 complete control

## CN1CC[C@H](c2ccccc2C(F)(F)F)[C@@H](C(=O)Nc2ccccc2C(F)(F)F)C1=O [Compound 1008]
Kochia (Kochia scoparia) [1]; 31 g ai/ha, 0 to 100 scale where 0 is no effect and 100 is complete control, read-out: Kochia plant response rating
  pest or weed control at 31 g/ha: 0%
Kochia (Kochia scoparia) [1]; 125 g ai/ha, visual injury rating after approximately 10 d, read-out: Kochia plant response rating (0 to 100 scale, 0 is no effect, 100 is complete control)
  pest or weed control at 125 g/ha: 0%
[2]; 125 g ai/ha, visual injury rating after approximately 10 d, read-out: Barnyardgrass plant response rating (0 to 100 scale, 0 is no effect, 100 is complete control)
  pest or weed control at 125 g/ha: 0%
[2]; 31 g ai/ha, 0 to 100 scale (0 no effect, 100 complete control), read-out: Plant response rating, Barnyardgrass
  pest or weed control at 31 g/ha: 0%
[3]; 125 g ai/ha, visual injury rating after approximately 10 d, read-out: Foxtail, Giant plant response rating (0 to 100 scale, 0 is no effect, 100 is complete control)
  pest or weed control at 125 g/ha: 0%
[3]; 31 g ai/ha, 0 to 100 scale (0 no effect, 100 complete control), read-out: Plant response rating, Foxtail, Giant
  pest or weed control at 31 g/ha: 0%
[4]; 31 g ai/ha, 0 to 100 scale where 0 is no effect and 100 is complete control, read-out: Pigweed plant response rating
  pest or weed control at 31 g/ha: 0%
[4]; 125 g ai/ha, visual injury rating after approximately 10 d, read-out: Pigweed plant response rating (0 to 100 scale, 0 is no effect, 100 is complete control)
  pest or weed control at 125 g/ha: 0%
[5]; 31 g ai/ha, 0 to 100 scale where 0 is no effect and 100 is complete control, read-out: Ragweed plant response rating
  pest or weed control at 31 g/ha: 0%
[5]; 125 g ai/ha, visual injury rating after approximately 10 d, read-out: Ragweed plant response rating (0 to 100 scale, 0 is no effect, 100 is complete control)
  pest or weed control at 125 g/ha: 0%
[6]; 31 g ai/ha, 0 to 100 scale where 0 is no effect and 100 is complete control, read-out: Ryegrass, Italian plant response rating
  pest or weed control at 31 g/ha: 0%
[6]; 125 g ai/ha, visual injury rating after approximately 10 d, read-out: Ryegrass, Italian plant response rating (0 to 100 scale, 0 is no effect, 100 is complete control)
  pest or weed control at 125 g/ha: 0%
[7]; [19]
  pest or weed control at 125 g/ha: 0%
[7]; [20]
  pest or weed control at 31 g/ha: 0%
Kochia (Kochia scoparia) [8]; [19]
  pest or weed control at 125 g/ha: 0%
Kochia (Kochia scoparia) [8]; [20]
  pest or weed control at 31 g/ha: 0%
[9]; [19]
  pest or weed control at 125 g/ha: 0%
[9]; [20]
  pest or weed control at 31 g/ha: 0%
[10]; [19]
  pest or weed control at 125 g/ha: 0%
[10]; [20]
  pest or weed control at 31 g/ha: 0%
Corn (Zea mays); [19]
  Corn plant response rating (crop injury, 0 = no effect, 100 = complete kill) at 125 g/ha: 0%
Corn (Zea mays); [20]
  Corn plant response rating (crop injury, 0 = no effect, 100 = complete kill) at 31 g/ha: 0%
[11]; [19]
  pest or weed control at 125 g/ha: 0%
[11]; [20]
  pest or weed control at 31 g/ha: 0%
[12]; [19]
  pest or weed control at 125 g/ha: 0%
[12]; [20]
  pest or weed control at 31 g/ha: 0%
[13]; [19]
  pest or weed control at 125 g/ha: 0%
[13]; [20]
  pest or weed control at 31 g/ha: 0%
[14]; [19]
  pest or weed control at 125 g/ha: 0%
[14]; [20]
  pest or weed control at 31 g/ha: 0%
[15]; [19]
  plant injury at 125 g/ha: 0%
[15]; [20]
  plant injury at 31 g/ha: 0%
[16]
  pest or weed control at 250 g/ha: 0%
[17]
  pest or weed control at 250 g/ha: 95%
Rice (Oryra sativa)
  pest or weed control at 250 g/ha: 0%
[18]
  pest or weed control at 250 g/ha: 0%
